Data reported in PubChem BioAssay (NCI).
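A five-concentration, 48-hour dose response in 96-well plates underlies each endpoint, interpolated linearly between surrounding concentrations. GI50 = concentration required for 50% inhibition of growth. TGI: concentration producing complete growth inhibition.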

How the values were obtained:
Experiment in all cases: inhibition of tumour cell growth, NCI panel, 48 h
[1] = tested on: ACHN renal
[2] = tested on: SNB-75 CNS
[3] = tested on: NCI-H226 lung
[4] = tested on: NCI-H522 lung
[5] = tested on: SNB-19 CNS
[6] = tested on: MCF7 breast
[7] = tested on: OVCAR-4 ovarian
[8] = tested on: MALME-3M melanoma
[9] = tested on: SF-295 CNS
[10] = tested on: OVCAR-5 ovarian
[11] = tested on: IGROV1 ovarian
[12] = tested on: HOP-62 NSCLC
[13] = tested on: A498 renal
[14] = tested on: SF-539 CNS
[15] = tested on: OVCAR-3 ovarian
[16] = tested on: 786-0 renal
[17] = tested on: COLO 205 colon
[18] = tested on: KM12 colon
[19] = tested on: HOP-92 NSCLC
[20] = tested on: SK-OV-3 ovarian
[21] = tested on: T-47D breast
[22] = tested on: SF-268 CNS
[23] = tested on: RXF 393 renal
[24] = tested on: NCI-H460 lung
[25] = tested on: UACC-257 melanoma
[26] = tested on: HCC-2998 colon
[27] = tested on: SK-MEL-2 melanoma
[28] = tested on: HL-60(TB) leukemia
[29] = tested on: K-562 leukemia
[30] = tested on: TK-10 renal
[31] = tested on: HT29 colon
[32] = tested on: LOX IMVI melanoma
[33] = tested on: UACC-62 melanoma
[34] = tested on: SK-MEL-5 melanoma
[35] = tested on: CAKI-1 renal
[36] = tested on: OVCAR-8 ovarian
[37] = tested on: SN12C renal
[38] = tested on: NCI-H23 lung
[39] = tested on: EKVX NSCLC
[40] = tested on: SK-MEL-28 melanoma
[41] = tested on: CCRF-CEM leukemia
[42] = tested on: SR leukemia
[43] = tested on: MOLT-4 leukemia
[44] = tested on: HS 578T breast
[45] = tested on: PC-3 prostate
[46] = tested on: U251 CNS
[47] = tested on: BT-549 breast

Structure (SMILES): ClC(Cl)c1nc(-c2ccccc2)n2nc(-c3ccccc3)cc2n1
- GI50 [1]: 0.572 µM
- TGI [1]: 3.1 µM
- GI50 [2]: 1.12 µM
- TGI [2]: 5.24 µM
- GI50 [3]: 48 µM
- TGI [3]: > 100 µM
- GI50 [4]: 3.63 µM
- TGI [4]: > 100 µM
- GI50 [5]: 1.55 µM
- TGI [5]: 6.85 µM
- GI50 [6]: 1.08 µM
- TGI [6]: > 100 µM
- GI50 [7]: 1.65 µM
- TGI [7]: 5.64 µM
- GI50 [8]: 3.3 µM
- TGI [8]: > 100 µM
- GI50 [9]: 1.83 µM
- TGI [9]: 5.66 µM
- GI50 [10]: 2.31 µM
- TGI [10]: 6.44 µM
- GI50 [11]: 3.06 µM
- TGI [11]: > 100 µM
- GI50 [12]: 0.586 µM
- TGI [12]: 5.6 µM
- GI50 [13]: 1.31 µM
- TGI [13]: 2.76 µM
- GI50 [14]: 1.78 µM
- TGI [14]: 5.57 µM
- GI50 [15]: 1.04 µM
- TGI [15]: 2.68 µM
- GI50 [16]: 8.7 µM
- TGI [16]: > 100 µM
- GI50 [17]: 0.778 µM
- TGI [17]: 3.42 µM
- GI50 [18]: 0.696 µM
- TGI [18]: 2.38 µM
- GI50 [19]: 1.41 µM
- TGI [19]: 5.9 µM
- GI50 [20]: 2.7 µM
- TGI [20]: 9.61 µM
- GI50 [21]: 2.13 µM
- TGI [21]: > 100 µM
- GI50 [22]: 2.28 µM
- TGI [22]: > 100 µM
- GI50 [23]: 0.533 µM
- TGI [23]: 2.38 µM
- GI50 [24]: 0.411 µM
- TGI [24]: 1.87 µM
- GI50 [25]: 2.1 µM
- TGI [25]: 5.19 µM
- GI50 [26]: 0.573 µM
- TGI [26]: 2.05 µM
- GI50 [27]: 31.6 µM
- TGI [27]: > 100 µM
- GI50 [28]: 1.65 µM
- TGI [28]: 7.69 µM
- GI50 [29]: 2.59 µM
- TGI [29]: > 100 µM
- GI50 [30]: 1.87 µM
- TGI [30]: 5.7 µM
- GI50 [31]: 0.442 µM
- TGI [31]: > 100 µM
- GI50 [32]: > 100 µM
- TGI [32]: > 100 µM
- GI50 [33]: 3.5 µM
- TGI [33]: > 100 µM
- GI50 [34]: > 100 µM
- TGI [34]: > 100 µM
- GI50 [35]: 1.6 µM
- TGI [35]: 7.13 µM
- GI50 [36]: 1.73 µM
- TGI [36]: > 100 µM
- GI50 [37]: > 100 µM
- TGI [37]: > 100 µM
- GI50 [38]: 1.42 µM
- TGI [38]: 4.09 µM
- GI50 [39]: 1.94 µM
- TGI [39]: 5.75 µM
- GI50 [40]: 1.65 µM
- TGI [40]: 3.1 µM
- GI50 [41]: > 100 µM
- TGI [41]: > 100 µM
- GI50 [42]: 1.02 µM
- TGI [42]: 5.61 µM
- GI50 [43]: 3.33 µM
- TGI [43]: > 100 µM
- GI50 [44]: 1.91 µM
- TGI [44]: 6.46 µM
- GI50 [45]: 1.66 µM
- TGI [45]: 4.73 µM
- GI50 [46]: 0.758 µM
- TGI [46]: 6.44 µM
- GI50 [47]: > 100 µM
- TGI [47]: > 100 µM
